Laboratory results reported in patent US20120046258A1, “NOVEL CRYSTALLINE PHARMACEUTICAL PRODUCT” (GLAXO GROUP LIMITED, priority 2005, published 2012).

Test: Anderson Cascade impaction analysis of dry powder blend in blister strip
Format: physicochemical
Settings: 0.8% w/w drug in milled lactose blend, 13 mg per blister
Method: A blend was prepared containing 0.8% w/w 6α,9α-difluoro-17α-[(2-furanylcarbonyl)oxy]-11β-hydroxy-16α-methyl-3-oxo-androsta-1,4-diene-17β-carbothioic acid S-fluoromethyl ester, prepared as particles according to the invention, and 99.2% w/w milled lactose (wherein the mean particle size is of the range 60-90 μm, and not greater than 15% of particles have a MMD of less than 15 μm).
The above composition was blended for 10 minutes at 600 rpm in a 2.5 litre bowl QMM Micromixer. A peelable blister strip containing 14 blisters, each filled with 13 mg of the powder formulation described above was prepared.
Anderson Cascade impaction analysis of this product was performed initially and after 1 month storage at 30° C. and 65% relative humidity as shown in Table 1 below.

C[C@]12C[C@H](O)[C@@]3(F)C(C[C@H](F)C4=CC(=O)C=C[C@@]43C)C1C[C@](C)(OC(=O)c1ccco1)[C@@H]2C(=O)SCF (some centres unmarked) [Micronised Drug, reference compound]
Respirable fraction (% of Total Emitted Dose) (1 month @ 30° C./65% Relative Humidity): 25.1 % of Total Emitted Dose | Respirable fraction (% of Total Emitted Dose) (Initial): 26.6 % of Total Emitted Dose
